Data reported in US20090155270A1, “CASPASE INHIBITORS, […] 3 INHIBITORS, FOR THE TREATMENT OF INFLUENZA” (priority 2003, published 2009).
Residues, ends and D or L forms follow the SMILES beside them. *: point of attachment. Cbz = O=C(OCc1ccccc1)*; CH2F = FC*

What was measured:
[1] = system: influenza virus ribonucleic protein complexes (RNP's); format: cell-based, influenza A virus
[2] = system: reconstituted RNP complexes (PB2, PB1, PA, NP); format: cell-based, influenza A virus
[3] = system: Raf/MEK/ERK signal pathway (ERK); format: cell-based, homo sapiens
[4] = system: influenza A virus strain fowl plague virus (FPV); format: cell-based
caspase-3 [5] = target: caspase-3 (Homo sapiens, UniProt P42574)
[6] = system: influenza A virus strain Bratislava/79 (fowl plague virus, FPV); format: cell-based
caspase-3 [7] = target: T1, caspase-3 (Canis lupus familiaris, UniProt Q8MKI5); format: cell-based
T1 construct: endogenous in cells; host or cells: MDCK cells infected with influenza A virus FPV
T1 sequence (Q8MKI5 29-175 limits assumed): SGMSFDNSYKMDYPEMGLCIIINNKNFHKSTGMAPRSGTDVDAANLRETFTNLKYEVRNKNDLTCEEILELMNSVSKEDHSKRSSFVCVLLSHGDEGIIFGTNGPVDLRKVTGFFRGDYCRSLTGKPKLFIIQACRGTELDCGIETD
T1 sequence (Q8MKI5 176-277 limits assumed): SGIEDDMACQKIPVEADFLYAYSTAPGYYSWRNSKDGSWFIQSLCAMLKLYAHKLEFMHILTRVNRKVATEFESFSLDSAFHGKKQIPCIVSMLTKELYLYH

[8] = system: early or late viral proteins (NS1, NP, M1); format: cell-based, influenza A virus
[9] = system: influenza A virus nucleoprotein (NP); format: cell-based
[10] = system: influenza A virus strain fowl plague virus (FPV); format: cell-based; remark: listed apart in the source
[11] = system: influenza A virus strain fowl plague virus (FPV); format: cell-based; remark: listed apart in the source

## N#CC(=C(/N)Sc1ccccc1N)/C(C#N)=C(\N)Sc1ccccc1N [U0126]
[1]
  migration of the RNP's out of the cell nucleus: efficiently be inhibited
[2]
  prevention of staurosporine-induced bleeding of GFP and RNP complexes out of the cell nucleus: not
[3]
  virus-induced activity of ERK: efficiently inhibited
[4]
  effect on the virus multiplication (titers of descendant viruses): again reduced
caspase-3 [5]
  cleavage of the caspase substrate PARP: did not lead to a modified cleavage of PARP

## COC(=O)CC[C@H](NC(=O)[C@H](CC(=O)OC)NC(=O)OCc1ccccc1)C(=O)N[C@H](C(=O)N[C@@H](CC(=O)OC)C(=O)CF)C(C)C [Z-DEVD-FMK]
[6]
  effect on virus multiplication when present in the first two hours after infection and removed thereafter: no significant effects
  inhibition of virus multiplication when added 4 hours after infection: continued to effectively inhibit virus multiplication
  reduction in the influenza virus titers: approx. 60%
caspase-3 [7]
  caspase inhibition, measured by the cleavage of the caspase substrate PARP, versus virus titer inhibition: precisely correlated
[8]
  effect on virus protein expression: no significant effect
[1]
  migration of the RNP's out of the cell nucleus: efficiently be inhibited
[9]
  prevention of staurosporine-induced bleeding of NP out of the cell nucleus: can be prevented
[2]
  prevention of staurosporine-induced bleeding of GFP and RNP complexes out of the cell nucleus: can be prevented
[3]
  virus-induced activity of ERK: substantially identical
[4]
  effect on the virus multiplication (titers of descendant viruses): did not have any effect

## CC(NC(=O)[C@H](Cc1ccccc1)NC(=O)OCc1ccccc1)C(=O)CF (some centres unmarked) [Z-FA-FMK]
[6]
  effect on virus multiplication: did not show any effect
[1]
  migration of the RNP's out of the cell nucleus: not

## COC(=O)C[C@H](NC(=O)[C@H](C)NC(=O)[C@@H](NC(=O)OCc1ccccc1)C(C)C)C(=O)CF [Z-VAD-FMK] (Cbz-Val-Ala-Asp(OMe)-CH2F)
[6]
  inhibition of the virus multiplication: same efficiency

## CCC(=C/[C@H](C)C/C=C/C(C)=C/[C@@H](C)C(=O)[C@@H](C)[C@H](O)[C@@H](C)C/C(C)=C/C(=O)O)/C=C/[C@@H]1OC(=O)C=C[C@@H]1C [leptomycin B]
[9]
  prevention of staurosporine-induced bleeding of NP out of the cell nucleus: not

## CN[C@@H]1C[C@H]2O[C@@](C)([C@@H]1OC)n1c3ccccc3c3c4c(c5c6ccccc6n2c5c31)C(=O)NC4 [staurosporine]
[9]
  localization of the nucleoprotein after apoptosis induction: distributed over the complete cell
[2]
  localization of GFP and RNP complexes after apoptosis induction: distributed over the complete cell

B1: procaspase-3 (protein, UniProt P42574 1-277, looked up)
pro-form: MENTENSVDSKSIKNLEPKIIHGSESMDSGISLDNSYKMDYPEMGLCIIINNKNFHKSTGMTSRSGTDVDAANLRETFRNLKYEVRNKNDLTREEIVELMRDVSKEDHSKRSSFVCVLLSHGEEGIIFGTNGPVDLKKITNFFRGDRCRSLTGKPKLFIIQACRGTELDCGIETDSGVDDDMACHKIPVEADFLYAYSTAPGYYSWRNSKDGSWFIQSLCAMLKQYADKLEFMHILTRVNRKVATEFESFSFDATFHAKKQIPCIVSMLTKELYFYH
modifications: pro-form
[10]
  virus multiplication in transfected cells: increased virus multiplication
[11]
  increase in the titers of descendant viruses: 30 fold
